Where two headings read alike, the source gives them in different places.
Target: T1, recombinant human GluN1/GluN2A receptor (Homo sapiens, UniProt Q05586+Q12879)
T1 construct: expressed in transfected cells; host or cells: HEK293, tetracycline-inducible expression
Experiment: Whole-cell patch clamp of mammalian cells (Syncropatch 384i), NMDA modulation
Format: cell-based
Details: HEK293 cells, human GluN1/GluN2A, glutamate 1 μM / glycine 100 μM, -80 mV, peak amplitude increase; for EC50: read-out: EC50
From the text: Whole-Cell Patch Clamp of Mammalian Cells (Syncropatch 384i (Nanion Technologies))
Whole-cell patch clamp electrophysiology was used to investigate the effects of compounds on GluN1/GluN2A N-methyl-D-aspartate (NMDA) glutamate receptors expressed in mammalian cells.
Human embryonic kidney (HEK293) cells expressing the recombinant human GluN1/GluN2A receptor under the control of a tetracycline-inducible expression system were used. Cells were maintained in Dulbecco's Modified Eagle's Medium (DMEM) with 1% glutamine, 10% Tetracycline System Approved fetal bovine serum (FBS), and NMDA inhibitors. Cells were cultured in a humidified 5% CO2 incubator at 37° C. Cells were induced with 50 ng/ml tetracycline 18-24 hours prior to testing. A cocktail of channel blockers was added to the media to prevent cell death.
Cells were 60-80% confluent at the time of harvest. Cells were detached from the flask TrypLE Enzyme Express (Thermo Fisher) at 37° C., and then cold extracellular solution was added to the flask, followed by incubation at 4° C. and then trituration of the cells. The cell solution was then placed on a shaker on the Syncropatch platform at 10° C. with a shake speed of a minimum 200 rpm for at least 30 minutes prior to testing.
Extracellular (EC) solution (in mM) —140 NaCl, 4 KCl, 5 CaCl2, 10 HEPES, 5 Glucose, pH 7.4 with NaOH. All external solutions contained 0.2% DMSO and 0.01% Kolliphor® EL (C5135, Sigma) throughout the experiment.
Intracellular (IC) solution (in mM) —120 CsF, 10 mM EGTA, 10 NaCl, 10 HEPES, 4 NaATP, 2 MgCl2, pH 7.2 with CsOH.
First, the DMSO Master Plate was prepared, in which the DMSO stock of each test compound was serially diluted in 100% DMSO to 1000× the final assay concentration. Immediately prior to assay testing, the compounds were diluted 1:100 by transferring solutions from the DMSO Mast Plate to the Intermediate Plate pre-filled with EC solution using a Biomek FX automated liquid handling system. Compounds were then diluted further with extracellular solution into two pre-incubation plates—1) compound from the Intermediate Plate was mixed with EC solution at a 1:5 dilution to create a 2× Compound Pre-Incubation Plate which was diluted a further 1:2 when added to the Syncropatch for the initial compound pre-incubation. And 2) compound from the Intermediate plate was mixed with EC solution at a 1:10 Dilution to create the 1× Compound Pre-Incubation Plate, which was used for subsequent compound pre-incubations. Finally, a Compound+Agonist Plate was prepared by mixing compound from the 2× Compound Pre-Incubation Plate with 2× concentration of co-agonists in a 1:1 ratio.
Each experiment sequentially included cell catching, sealing, whole-cell formation, liquid application, recording and data acquisition. Whole-cell patch clamp recordings were performed using multi-hole high resistance chips on the SyncroPatch 384i (Nanion Technologies). A steady-state voltage pulse at -80 mV was applied throughout the assay and a 10 second recording window was triggered around 1 second prior to application of co-agonists. Currents were leak corrected and sampled at 5 kHz.
A fast application was used, in which 5 μl co-agonist was rapidly applied at a speed of 30 μl/s and then rapidly removed from the well. To test for modulator activity, the co-agonists glutamate (1 μM) and glycine (100 μM) were applied three times to show activation reproducibility, followed by 120 seconds pre-incubation of test compound alone. The test compound was then re-applied in the presence of co-agonists two times. This was followed by application of the agonist alone, although test compound may not be fully washed from the well prior to this step. Finally, a saturating concentration of co-agonists (glutamate 100 μM/glycine 100 μM) was applied.
The voltage protocol generation data collection and analysis were performed on PatchControll384 and DataControll384. […]

T1 sequence (Q12879 23-1464, other chains not shown): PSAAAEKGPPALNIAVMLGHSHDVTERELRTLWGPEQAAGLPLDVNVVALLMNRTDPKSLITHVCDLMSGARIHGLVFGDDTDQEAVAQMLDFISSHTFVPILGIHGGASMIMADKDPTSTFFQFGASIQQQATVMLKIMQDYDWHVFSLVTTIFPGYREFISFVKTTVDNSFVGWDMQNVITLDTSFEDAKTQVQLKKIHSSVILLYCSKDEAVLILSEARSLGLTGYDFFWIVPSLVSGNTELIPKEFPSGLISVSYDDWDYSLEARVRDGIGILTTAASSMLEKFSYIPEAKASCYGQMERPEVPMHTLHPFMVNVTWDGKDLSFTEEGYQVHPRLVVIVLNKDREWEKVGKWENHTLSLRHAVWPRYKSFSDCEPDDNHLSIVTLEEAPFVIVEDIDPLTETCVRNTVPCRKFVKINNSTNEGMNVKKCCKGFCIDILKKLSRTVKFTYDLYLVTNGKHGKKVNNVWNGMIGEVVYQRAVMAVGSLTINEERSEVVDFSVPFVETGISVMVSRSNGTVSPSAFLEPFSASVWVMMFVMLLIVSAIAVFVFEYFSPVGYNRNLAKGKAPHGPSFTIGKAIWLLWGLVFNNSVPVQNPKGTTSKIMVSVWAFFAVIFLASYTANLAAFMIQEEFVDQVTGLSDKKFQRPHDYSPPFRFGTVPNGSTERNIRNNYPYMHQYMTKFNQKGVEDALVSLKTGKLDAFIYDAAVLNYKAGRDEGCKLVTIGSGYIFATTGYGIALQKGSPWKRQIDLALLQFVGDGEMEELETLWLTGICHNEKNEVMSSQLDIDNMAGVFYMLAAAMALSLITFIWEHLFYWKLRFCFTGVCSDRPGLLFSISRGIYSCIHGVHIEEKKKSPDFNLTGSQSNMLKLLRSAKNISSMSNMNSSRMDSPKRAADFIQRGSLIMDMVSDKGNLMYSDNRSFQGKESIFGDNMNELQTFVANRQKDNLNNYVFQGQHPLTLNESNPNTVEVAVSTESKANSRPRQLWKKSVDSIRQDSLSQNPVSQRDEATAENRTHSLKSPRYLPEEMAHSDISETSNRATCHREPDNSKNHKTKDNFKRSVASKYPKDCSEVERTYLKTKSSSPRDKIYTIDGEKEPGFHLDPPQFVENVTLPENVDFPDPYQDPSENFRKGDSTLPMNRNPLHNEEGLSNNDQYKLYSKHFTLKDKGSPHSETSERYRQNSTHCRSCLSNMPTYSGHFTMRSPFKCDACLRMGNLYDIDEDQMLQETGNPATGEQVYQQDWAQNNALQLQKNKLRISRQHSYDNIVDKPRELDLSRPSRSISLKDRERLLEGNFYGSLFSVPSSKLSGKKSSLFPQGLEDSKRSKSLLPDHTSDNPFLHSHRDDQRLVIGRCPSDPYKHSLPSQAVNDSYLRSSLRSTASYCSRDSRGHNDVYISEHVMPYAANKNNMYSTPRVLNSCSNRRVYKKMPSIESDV

Compound: CC[C@]1(O)CC[C@@]2(C)C(=CC[C@H]3[C@@H]4CC[C@H]([C@@H](CC[C@@](C)(O)C(F)(F)F)OC)[C@@]4(C)CC[C@@H]32)C1 [Compound A-13, (3S,8S,9S,10R,13S,14S,17S)-3-ethyl-10,13-dimethyl-17-((1R,4R)-5,5,5-trifluoro-4-hydroxy-1-methoxy-4-methylpentyl)-2,3,4,7,8,9,10,11,12,13,14,15,16,17-tetradecahydro-1H-cyclopenta[a]phenanthren-3-ol]
- Emax (Table A-2): > 200%
- EC50 (Table A-2): 500 to 1000 nM

Compound: CC[C@]1(O)CC[C@@]2(C)C(=CC[C@H]3[C@@H]4CC[C@H]([C@@H](CC[C@](C)(O)C(F)(F)F)OC)[C@@]4(C)CC[C@@H]32)C1 [Compound A-14, (3S,8S,9S,10R,13S,14S,17S)-3-ethyl-10,13-dimethyl-17-((1R,4S)-5,5,5-trifluoro-4-hydroxy-1-methoxy-4-methylpentyl)-2,3,4,7,8,9,10,11,12,13,14,15,16,17-tetradecahydro-1H-cyclopenta[a]phenanthren-3-ol]
- Emax (Table A-2): > 200%
- EC50 (Table A-2): 1 to 100 nM

Compound: CC[C@]1(O)CC[C@@]2(C)C(=CC[C@H]3[C@@H]4CC[C@H]([C@@H](CC[C@@H](O)C(C)C)OC)[C@@]4(C)CC[C@@H]32)C1 [Compound A-15, (3S,8S,9S,10R,13S,14S,17S)-3-ethyl-17-((1R,4R)-4-hydroxy-1-methoxy-5-methylhexyl)-10,13-dimethyl-2,3,4,7,8,9,10,11,12,13,14,15,16,17-tetradecahydro-1H-cyclopenta[a]phenanthren-3-ol]
- Emax (Table A-2): > 200%
- EC50 (Table A-2): 1 to 100 nM

Compound: CC[C@]1(O)CC[C@@]2(C)C(=CC[C@H]3[C@@H]4CC[C@H]([C@@H](CC[C@H](O)C(C)C)OC)[C@@]4(C)CC[C@@H]32)C1 [Compound A-16, (3S,8S,9S,10R,13S,14S,17S)-3-ethyl-17-((1R,4S)-4-hydroxy-1-methoxy-5-methylhexyl)-10,13-dimethyl-2,3,4,7,8,9,10,11,12,13,14,15,16,17-tetradecahydro-1H-cyclopenta[a]phenanthren-3-ol]
- Emax (Table A-2): > 200%
- EC50 (Table A-2): 1 to 100 nM

Compound: CC[C@]1(O)CC[C@@]2(C)[C@@H](CC[C@@H]3[C@@H]2CC[C@]2(C)[C@@H]([C@H](CC[C@H](O)C(C)C)C(F)(F)F)CC[C@@H]32)C1 [Compound A-17, (3S,5S,8R,9S,10S,13S,14S,17R)-3-ethyl-10,13-dimethyl-17-((2S,5S)-1,1,1-trifluoro-5-hydroxy-6-methylheptan-2-yl)hexadecahydro-1H-cyclopenta[a]phenanthren-3-ol]
- EC50 (Table A-2): > 1000 nM

Compound: CC[C@]1(O)CC[C@@]2(C)[C@@H](CC[C@@H]3[C@@H]2CC[C@]2(C)[C@@H]([C@H](CCCC(C)(C)O)C(F)(F)F)CC[C@@H]32)C1 [Compound A-18, (3S,5S,8R,9S,10S,13S,14S,17R)-3-ethyl-10,13-dimethyl-17-((S)-1,1,1-trifluoro-6-hydroxy-6-methylheptan-2-yl)hexadecahydro-1H-cyclopenta[a]phenanthren-3-ol]
- EC50 (Table A-2): > 1000 nM

Compound: CC[C@@H](CCCC(C)(C)O)[C@H]1CC[C@H]2[C@@H]3CC[C@H]4C[C@](O)(CC)CC[C@]4(C)[C@H]3CC[C@]12C [Compound A-20, (3S,5S,8R,9S,10S,13R,14S,17R)-3-ethyl-17-((S)-7-hydroxy-7-methyloctan-3-yl)-10,13-dimethylhexadecahydro-1H-cyclopenta[a]phenanthren-3-ol]
- EC50 (Table A-2): > 1000 nM

Compound: CC[C@]1(O)CC[C@@]2(C)[C@@H](CC[C@@H]3[C@@H]2CC[C@]2(C)[C@@H]([C@@H](CC[C@@](C)(O)C(F)(F)F)OC)CC[C@@H]32)C1 [Compound A-23, (3S,5S,8R,9S,10S,13S,14S,17S)-3-ethyl-10,13-dimethyl-17-((1R,4R)-5,5,5-trifluoro-4-hydroxy-1-methoxy-4-methylpentyl) hexadecahydro-1H-cyclopenta[a]phenanthren-3-ol]
- EC50 (Table A-2): 500 to 1000 nM

Compound: CC[C@]1(O)CC[C@@]2(C)[C@@H](CC[C@@H]3[C@@H]2CC[C@]2(C)[C@@H]([C@@H](CC[C@](C)(O)C(F)(F)F)OC)CC[C@@H]32)C1 [Compound A-24, (3S,5S,8R,9S,10S,13S,14S,17S)-3-ethyl-10,13-dimethyl-17-((1R,4S)-5,5,5-trifluoro-4-hydroxy-1-methoxy-4-methylpentyl) hexadecahydro-1H-cyclopenta[a]phenanthren-3-ol]
- EC50 (Table A-2): 100 to 500 nM

Compound: CC[C@]1(O)CC[C@@]2(C)[C@@H](CC[C@H]3[C@@H]4[C@@H]5C[C@@H]5[C@H]([C@H](C)CCCC(C)(C)O)[C@@]4(C)CC[C@@H]32)C1 [Compound B-1, (2S,4aS,4bS,6aR,7S,7aS,8aR,8bS,8cR,10aS)-2-ethyl-7-((R)-6-hydroxy-6-methylheptan-2-yl)-4a,6a-dimethyloctadecahydrocyclopropa[4,5]cyclopenta[1,2-a]phenanthren-2-ol]
- Emax (Table B-2): > 200%
- EC50 (Table B-2): 1 to 100 nM

Compound: CC[C@]1(O)CC[C@@]2(C)[C@@H](CC[C@H]3[C@@H]4[C@@H]5C[C@@H]5[C@H]([C@H](C)CC[C@@](C)(O)C(F)(F)F)[C@@]4(C)CC[C@@H]32)C1 [Compound B-2, (2S,4aS,4bS,6aR,7S,7aS,8aR,8bS,8cR,10aS)-2-ethyl-4a,6a-dimethyl-7-((2R,5R)-6,6,6-trifluoro-5-hydroxy-5-methylhexan-2-yl)octadecahydrocyclopropa[4,5]cyclopenta[1,2-a]phenanthren-2-ol]
- Emax (Table B-2): > 200%
- EC50 (Table B-2): 100 to 500 nM

Compound: CC[C@]1(O)CC[C@@]2(C)[C@@H](CC[C@H]3[C@@H]4[C@@H]5C[C@@H]5[C@H]([C@H](C)CC[C@](C)(O)C(F)(F)F)[C@@]4(C)CC[C@@H]32)C1 [Compound B-3, (2S,4aS,4bS,6aR,7S,7aS,8aR,8bS,8cR,10aS)-2-ethyl-4a,6a-dimethyl-7-((2R,5S)-6,6,6-trifluoro-5-hydroxy-5-methylhexan-2-yl)octadecahydrocyclopropa[4,5]cyclopenta[1,2-a]phenanthren-2-ol]
- Emax (Table B-2): > 200%
- EC50 (Table B-2): 1 to 100 nM

Compound: CC[C@]1(O)CC[C@@]2(C)[C@@H](CC[C@H]3[C@@H]4[C@H]5C[C@H]5[C@H]([C@H](C)CCCC(C)(C)O)[C@@]4(C)CC[C@@H]32)C1 [Compound B-4, (2S,4aS,4bS,6aR,7S,7aR,8aS,8bS,8cR,10aS)-2-ethyl-7-((R)-6-hydroxy-6-methylheptan-2-yl)-4a,6a-dimethyloctadecahydrocyclopropa[4,5]cyclopenta[1,2-a]phenanthren-2-ol]
- Emax (Table B-2): > 200%
- EC50 (Table B-2): 1 to 100 nM

Compound: CC[C@]1(O)CC[C@@]2(C)[C@@H](CC[C@H]3[C@@H]4[C@H]5C[C@H]5[C@H]([C@H](C)CC[C@](C)(O)C(F)(F)F)[C@@]4(C)CC[C@@H]32)C1 [Compound B-5, (2S,4aS,4bS,6aR,7S,7aR,8aS,8bS,8cR,10aS)-2-ethyl-4a,6a-dimethyl-7-((2R,5S)-6,6,6-trifluoro-5-hydroxy-5-methylhexan-2-yl)octadecahydrocyclopropa[4,5]cyclopenta[1,2-a]phenanthren-2-ol]
- Emax (Table B-2): > 200%
- EC50 (Table B-2): 100 to 500 nM

Compound: CC[C@]1(O)CC[C@@]2(C)[C@@H](CC[C@H]3[C@@H]4[C@H]5C[C@H]5[C@H]([C@H](C)CCC(C)(C)O)[C@@]4(C)CC[C@@H]32)C1 [Compound B-6]
- Emax (Table B-2): > 200%
- EC50 (Table B-2): 100 to 500 nM

— US20240368214A1, “POSITIVE NMDA-MODULATING COMPOUNDS AND METHODS OF USE THEREOF” (SAGE THERAPEUTICS, INC., priority 2021, published 2024)
